Measured values published in patent US12227500B2, “Substituted pyrrolo[2,3-b]pyridines for suppressing toxic endoplasmic reticulum stress” (THE TRUSTEES OF COLUMBIA UNIVERSITY IN THE CITY OF NEW YORK, priority 2018, dated 2025).
Several values for one entry are separate records, joined by “and”; a condition that tells them apart may be missing. Identical values can stand only once. Like-named read-outs stand apart in the source and are kept apart here.

How the values were obtained:
[1] = test system: N9 microglial cells; experiment: TNFα release by LPS-stimulated microglia (ELISA); format: cell-based, mouse; settings: for TNFα secretion in LPS-stimulated microglia: LPS 0.1-5 μM, 24 h
Method: To model microglial activation in vitro, we stimulated mouse N9 microglial cells with increasing concentrations of E. coli-derived lipopolysaccharides (LPS) (0.1-5 μM) to measure release of the pro-inflammatory cytokine TNFα into cell culture media.
Cultures were maintained in DMEM containing FBS (10%, Life Technologies) and Glutamax (1%, Life Technologies). […] N9 cells remaining in the culture dishes were treated with AlamarBlue (Thermo Fisher) to assess viability. 5 μL AlamarBlue was added to each well (containing 50 μL culture media) and incubated for 4 h at 37°.

[2] = target: T1, panel of 371 human kinases (Homo sapiens, UniProt O75914); experiment: Radiolabeled ATP kinase assay, panel of 371 kinases (Table S6); format: biochemical; settings: PAK3; 0.1 μM; 10 μM ATP; read-out: % Enzyme Activity (relative to DMSO controls)
T1 construct: purchased Reaction Biology Corp
Text: (§1) ; FIG. 38C). […]. Further targeted analyses, such as genetic knock-down or knock-out, may be warranted to parse the role of these additional kinases in our model of neurodegeneration.

[3] = target: T2, panel of 371 human kinases (Homo sapiens, UniProt O75716); experiment: as above; format: biochemical; settings: STK16; 0.1 μM; 10 μM ATP; read-out: % Enzyme Activity (relative to DMSO controls)
T2 construct: purchased Reaction Biology Corp
T2 sequence (O75716 whole entry): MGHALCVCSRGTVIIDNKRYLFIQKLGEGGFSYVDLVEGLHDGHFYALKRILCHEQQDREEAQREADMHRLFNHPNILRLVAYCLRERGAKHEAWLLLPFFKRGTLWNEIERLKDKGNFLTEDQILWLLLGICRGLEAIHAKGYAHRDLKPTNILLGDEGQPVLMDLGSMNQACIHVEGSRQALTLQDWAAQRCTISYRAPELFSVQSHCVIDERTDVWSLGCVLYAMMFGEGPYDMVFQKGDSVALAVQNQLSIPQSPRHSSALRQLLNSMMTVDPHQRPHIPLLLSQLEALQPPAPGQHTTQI
Text: as §1

[4] = target: T3, panel of 371 human kinases (Homo sapiens, UniProt P08069); experiment: as above; format: biochemical; settings: IGF1R; 0.1 μM; 10 μM ATP; read-out: % Enzyme Activity (relative to DMSO controls)
T3 construct: purchased Reaction Biology Corp
T3 sequence (P08069 31-1367): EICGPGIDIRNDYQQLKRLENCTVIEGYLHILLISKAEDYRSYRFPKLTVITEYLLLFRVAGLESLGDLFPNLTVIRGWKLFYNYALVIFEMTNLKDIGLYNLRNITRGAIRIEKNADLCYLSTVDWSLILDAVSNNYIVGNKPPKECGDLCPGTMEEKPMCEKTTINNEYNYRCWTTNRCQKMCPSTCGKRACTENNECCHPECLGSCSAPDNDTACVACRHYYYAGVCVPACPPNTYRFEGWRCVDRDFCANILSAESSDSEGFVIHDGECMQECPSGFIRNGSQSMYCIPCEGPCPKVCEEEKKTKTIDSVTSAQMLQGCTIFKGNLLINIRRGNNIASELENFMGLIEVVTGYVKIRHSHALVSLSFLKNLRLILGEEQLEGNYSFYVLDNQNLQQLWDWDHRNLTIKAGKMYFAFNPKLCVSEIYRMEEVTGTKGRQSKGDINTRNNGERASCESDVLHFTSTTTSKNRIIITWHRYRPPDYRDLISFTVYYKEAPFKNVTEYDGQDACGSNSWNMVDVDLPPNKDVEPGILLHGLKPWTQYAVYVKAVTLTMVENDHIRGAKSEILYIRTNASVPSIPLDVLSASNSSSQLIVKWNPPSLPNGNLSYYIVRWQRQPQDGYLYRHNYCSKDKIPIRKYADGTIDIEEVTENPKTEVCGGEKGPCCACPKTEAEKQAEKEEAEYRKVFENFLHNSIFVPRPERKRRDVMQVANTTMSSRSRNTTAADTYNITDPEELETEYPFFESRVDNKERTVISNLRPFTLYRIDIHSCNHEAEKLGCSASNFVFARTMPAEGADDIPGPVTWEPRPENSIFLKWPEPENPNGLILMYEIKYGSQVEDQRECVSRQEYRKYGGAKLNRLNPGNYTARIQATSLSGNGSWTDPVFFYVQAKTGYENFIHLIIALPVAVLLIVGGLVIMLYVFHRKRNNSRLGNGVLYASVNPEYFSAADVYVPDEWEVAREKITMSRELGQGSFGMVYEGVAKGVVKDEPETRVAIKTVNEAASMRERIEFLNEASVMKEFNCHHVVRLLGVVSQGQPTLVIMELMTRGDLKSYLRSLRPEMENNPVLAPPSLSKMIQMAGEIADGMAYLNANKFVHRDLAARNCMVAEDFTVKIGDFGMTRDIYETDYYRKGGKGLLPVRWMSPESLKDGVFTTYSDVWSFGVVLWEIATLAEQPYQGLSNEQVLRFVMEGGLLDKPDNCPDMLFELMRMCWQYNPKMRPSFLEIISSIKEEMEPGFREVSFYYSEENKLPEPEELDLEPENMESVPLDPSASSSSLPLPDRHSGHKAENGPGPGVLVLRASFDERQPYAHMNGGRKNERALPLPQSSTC
Text: as §1

[5] = target: T4, panel of 371 human kinases (Homo sapiens, UniProt Q13627); experiment: as above; format: biochemical; settings: DYRK1/DYRK1A; 0.1 μM; 10 μM ATP; read-out: % Enzyme Activity (relative to DMSO controls)
T4 construct: purchased Reaction Biology Corp
Text: as §1

[6] = target: T5, panel of 371 human kinases (Homo sapiens, UniProt P68400); experiment: as above; format: biochemical; settings: CK2a; 0.1 μM; 10 μM ATP; read-out: % Enzyme Activity (relative to DMSO controls)
T5 construct: purchased Reaction Biology Corp
T5 sequence (P68400 whole entry): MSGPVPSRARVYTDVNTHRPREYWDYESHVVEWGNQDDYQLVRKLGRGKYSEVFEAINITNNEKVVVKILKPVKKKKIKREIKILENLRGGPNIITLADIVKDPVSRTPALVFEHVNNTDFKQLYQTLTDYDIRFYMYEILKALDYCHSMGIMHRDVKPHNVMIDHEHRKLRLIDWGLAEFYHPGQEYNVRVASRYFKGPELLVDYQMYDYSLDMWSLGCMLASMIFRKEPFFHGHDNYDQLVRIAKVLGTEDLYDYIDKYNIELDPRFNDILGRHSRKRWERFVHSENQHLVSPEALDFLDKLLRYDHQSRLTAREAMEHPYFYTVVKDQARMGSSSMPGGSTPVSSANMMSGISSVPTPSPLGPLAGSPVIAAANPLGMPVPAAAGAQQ
Text: as §1

[7] = target: T6, panel of 371 human kinases (Homo sapiens, UniProt Q99986); experiment: as above; format: biochemical; settings: VRK1; 0.1 μM; 10 μM ATP; read-out: % Enzyme Activity (relative to DMSO controls)
T6 construct: purchased Reaction Biology Corp
T6 sequence (Q99986 whole entry): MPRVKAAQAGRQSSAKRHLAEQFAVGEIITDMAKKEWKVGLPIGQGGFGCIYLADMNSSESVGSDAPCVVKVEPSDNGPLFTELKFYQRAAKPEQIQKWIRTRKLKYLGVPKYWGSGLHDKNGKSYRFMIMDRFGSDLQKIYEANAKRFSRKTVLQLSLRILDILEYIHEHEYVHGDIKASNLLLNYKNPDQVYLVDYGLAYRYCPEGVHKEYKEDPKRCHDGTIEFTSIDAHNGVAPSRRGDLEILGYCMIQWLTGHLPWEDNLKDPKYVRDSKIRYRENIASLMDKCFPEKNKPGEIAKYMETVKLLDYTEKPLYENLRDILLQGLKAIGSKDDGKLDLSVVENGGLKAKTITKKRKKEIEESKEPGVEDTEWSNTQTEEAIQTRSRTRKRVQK
Text: as §1

[8] = target: T7, panel of 371 human kinases (Homo sapiens, UniProt Q13882); experiment: as above; format: biochemical; settings: BRK; 0.1 μM; 10 μM ATP; read-out: % Enzyme Activity (relative to DMSO controls)
T7 construct: purchased Reaction Biology Corp
T7 sequence (Q13882 whole entry): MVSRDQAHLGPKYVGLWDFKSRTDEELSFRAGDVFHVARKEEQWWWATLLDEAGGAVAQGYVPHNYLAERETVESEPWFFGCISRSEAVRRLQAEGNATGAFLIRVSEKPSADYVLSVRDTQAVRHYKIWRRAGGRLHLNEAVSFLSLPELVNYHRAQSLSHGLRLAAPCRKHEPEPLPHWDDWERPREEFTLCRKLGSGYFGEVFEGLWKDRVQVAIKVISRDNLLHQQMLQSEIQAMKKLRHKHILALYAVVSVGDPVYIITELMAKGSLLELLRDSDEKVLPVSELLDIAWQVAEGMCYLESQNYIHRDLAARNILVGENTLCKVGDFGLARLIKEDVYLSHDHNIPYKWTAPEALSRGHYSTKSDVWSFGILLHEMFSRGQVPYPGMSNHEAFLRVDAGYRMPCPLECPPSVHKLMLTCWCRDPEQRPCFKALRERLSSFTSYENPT
Text: as §1

[9] = target: T8, panel of 371 human kinases (Homo sapiens, UniProt Q15139); experiment: as above; format: biochemical; settings: PKCmu/PRKD1; 0.1 μM; 10 μM ATP; read-out: % Enzyme Activity (relative to DMSO controls)
T8 construct: purchased Reaction Biology Corp
T8 sequence (Q15139 whole entry): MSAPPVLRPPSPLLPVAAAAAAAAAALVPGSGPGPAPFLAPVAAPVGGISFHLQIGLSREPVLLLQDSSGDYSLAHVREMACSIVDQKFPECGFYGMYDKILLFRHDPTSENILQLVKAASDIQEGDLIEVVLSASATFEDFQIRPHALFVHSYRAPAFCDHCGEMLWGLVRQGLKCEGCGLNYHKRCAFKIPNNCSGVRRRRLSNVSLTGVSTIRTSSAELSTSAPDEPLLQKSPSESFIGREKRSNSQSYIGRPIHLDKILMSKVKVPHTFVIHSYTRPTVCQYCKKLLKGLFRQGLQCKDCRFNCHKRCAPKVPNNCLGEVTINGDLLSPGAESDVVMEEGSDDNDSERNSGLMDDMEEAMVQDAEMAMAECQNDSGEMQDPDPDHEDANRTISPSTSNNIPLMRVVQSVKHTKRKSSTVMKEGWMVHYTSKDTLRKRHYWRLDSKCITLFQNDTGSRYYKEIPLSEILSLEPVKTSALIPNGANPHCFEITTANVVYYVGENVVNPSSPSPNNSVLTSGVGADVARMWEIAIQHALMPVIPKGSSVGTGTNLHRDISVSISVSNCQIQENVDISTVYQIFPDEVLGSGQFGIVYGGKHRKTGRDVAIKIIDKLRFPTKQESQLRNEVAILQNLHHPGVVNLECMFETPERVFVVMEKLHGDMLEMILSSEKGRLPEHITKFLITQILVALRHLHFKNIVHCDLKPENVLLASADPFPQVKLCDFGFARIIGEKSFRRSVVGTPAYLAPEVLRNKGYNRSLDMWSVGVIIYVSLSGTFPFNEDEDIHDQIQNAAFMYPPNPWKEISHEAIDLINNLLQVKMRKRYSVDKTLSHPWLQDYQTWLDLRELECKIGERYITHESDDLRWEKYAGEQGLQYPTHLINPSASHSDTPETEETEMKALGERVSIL
Text: as §1

[10] = target: T9, panel of 371 human kinases (Homo sapiens, UniProt P06493); experiment: as above; format: biochemical; settings: 0.1 μM, 10 μM ATP, read-out: % Enzyme Activity (relative to DMSO controls)
T9 construct: purchased Reaction Biology Corp
T9 sequence (P06493 whole entry): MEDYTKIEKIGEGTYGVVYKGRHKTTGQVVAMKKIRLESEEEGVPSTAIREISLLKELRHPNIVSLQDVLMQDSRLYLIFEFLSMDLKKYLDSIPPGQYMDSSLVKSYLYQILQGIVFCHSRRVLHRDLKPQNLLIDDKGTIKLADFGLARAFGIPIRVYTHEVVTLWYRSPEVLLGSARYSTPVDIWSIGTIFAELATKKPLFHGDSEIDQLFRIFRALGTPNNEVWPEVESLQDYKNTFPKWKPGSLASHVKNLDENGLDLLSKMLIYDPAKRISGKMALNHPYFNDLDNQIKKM
Text: as §1

[11] = target: T10, panel of 371 human kinases (Homo sapiens, UniProt O00506); experiment: as above; format: biochemical; settings: STK25/YSK1; 0.1 μM; 10 μM ATP; read-out: % Enzyme Activity (relative to DMSO controls)
T10 construct: purchased Reaction Biology Corp
T10 sequence (O00506 whole entry): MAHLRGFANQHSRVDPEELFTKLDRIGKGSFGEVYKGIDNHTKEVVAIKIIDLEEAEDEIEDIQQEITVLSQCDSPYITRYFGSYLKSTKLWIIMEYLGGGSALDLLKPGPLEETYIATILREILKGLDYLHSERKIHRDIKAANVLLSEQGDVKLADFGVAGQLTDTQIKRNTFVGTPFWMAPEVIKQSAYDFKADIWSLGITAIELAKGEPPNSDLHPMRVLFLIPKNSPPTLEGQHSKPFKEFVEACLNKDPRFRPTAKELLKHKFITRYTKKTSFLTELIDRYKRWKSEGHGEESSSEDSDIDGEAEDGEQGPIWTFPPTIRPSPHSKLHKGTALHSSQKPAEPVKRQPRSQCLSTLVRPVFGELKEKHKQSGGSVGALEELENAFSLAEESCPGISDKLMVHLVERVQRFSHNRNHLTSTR
Text: as §1

[12] = In vivo pharmacokinetics, IP injection or oral gavage, 10 mg/kg; set-up: species or system mouse; settings: for Kp at 3 h: brain/plasma, read-out: Brain/plasma ratio at 3 h; for Cmax: plasma
Method: Based on its strong performance in the microsome assay, 12k was selected for further pharmacokinetic analysis in vivo. Compounds 1 and 12k were administered to 8 week-old wild-type […] mice at 10 mg/kg through intraperitoneal (IP) injection or oral gavage (OG). Brains and plasma were collected across 4 time points over 24 h for LC-MS/MS analysis.
Compounds 1 and 12k were dissolved in DMSO to 40 mg/mL. For in vivo administration, the DMSO stock was further diluted to 2 mg/mL in a vehicle containing 40% PEG-400 (Sigma) and 55% of a (2-hydroxypropyl)-beta-cyclodextrin solution (20% in nanopure water, Sigma). Compounds were delivered at 10 mg/kg by intraperitoneal injection or oral gavage to 8 week-old male wild-type C57Bl6J mice (Jackson). After 15 min, 3 h, 8 h or 24h, animals were anesthetized with a mixture of ketamine (100 mg/kg) and xylazine (10 mg/kg), then decapitated to collect trunk blood and dissect fresh brain tissue. Blood samples were treated with EDTA solution (50 mM final concentration) to prevent coagulation and centrifuged for 10 min at 845 rcf at 4° to separate plasma. Fresh brains were lysed in 5 volumes of ddH2O.
Plasma samples were transferred to Eppendorf tubes (50 μL per sample) and diluted with acetonitrile (200 μL). The samples were sonicated for 1 minute followed by centrifugation at 16,000 rpm for 10 minutes. The supernatant was transferred to another Eppendorf tube and the solvent evaporated overnight. The samples were reconstituted in a mixture of 40 μL acetonitrile and 10 μL water transferred to a sample vial with insert, and analyzed by LC-MS.
Homogenized brain samples (250 μL) were transferred to Eppendorf tubes and diluted with acetonitrile (750 μL). The samples were sonicated for 1 minute followed by centrifugation at 16,000 rpm for 10 minutes. The supernatant (900 μL) was transferred to another Eppendorf tube and the solvent evaporated overnight. The samples were reconstituted in a mixture of 80 μL acetonitrile and 20 μL water, transferred to a sample vial with insert, and analyzed by LC-MS.
LC-MS analysis was performed on a platform comprising a Thermo Scientific Dionex Ultimate 3000 and a Bruker amaZon SL equipped with an electrospray ionization source controlled by Bruker Hystar 3.2. The compound concentration in each plasma sample was determined using a calibration curve. Chromatographic separation was performed by injecting 10 μL of the sample onto an Agilent Eclipse Plus C18 column (2.1×50 mm, 3.5 μm) maintained at 20° C. The flow rate was maintained at 400 μL/min. The initial flow conditions were 60% solvent A (water containing 0.1% acetic acid) and 40% solvent B (methanol containing 0.1% acetic acid). Solvent B was raised to 60% over 0.25 minutes and to 70% by 6.75 minutes.

[13] = Plasma and brain concentration after IV injection (FIG. 13B); format: in vivo, mouse; settings: 10 mg/kg
Method: Drug concentrations were analyzed by LC-MS.

SMILES | TNFα secretion in LPS-stimulated microglia [1] | remaining activity at 0.1 µM [2] [%] | remaining activity at 0.1 µM [3] [%] | remaining activity at 0.1 µM [4] [%] | remaining activity at 0.1 µM [5] [%] | remaining activity at 0.1 µM [6] [%] | remaining activity at 0.1 µM [7] [%] | remaining activity at 0.1 µM [8] [%] | remaining activity at 0.1 µM [9] [%] | remaining activity at 0.1 µM ([10]; CDK1/cyclin A) [%] | remaining activity at 0.1 µM ([10]; CDK1/cyclin B) [%] | remaining activity at 0.1 µM ([10]; CDK1/cyclin E) [%] | remaining activity at 0.1 µM [11] [%] | Oral bioavailability (% F) based on plasma measurements in IP vs. OG-treated animals [12] [%] | Brain AUC ([12]; IP) [ng·h/mL] | Brain mean Cmax ([12]; IP) [µg/kg] | Plasma AUC ([12]; IP) [ng·h/mL] | Brain AUC ([12]; OG) [ng·h/mL] | Brain mean Cmax ([12]; OG) [µg/kg] | Plasma AUC ([12]; OG) [ng·h/mL] | also measured
CN1CCN(Cc2ccc(-c3cnc4[nH]cc(-c5ccc6[nH]ccc6c5)c4c3)cc2)CC1 [Compound 1, 3-(1H-Indol-5-yl)-5-(4-((4-methylpiperazin-1-yl)methyl)phenyl)-1H-pyrrolo[2,3-b]pyridine, reference compound] | significantly and dose-dependently decreased TNFα secretion | 97.3 | 100 | 95.4 | 52.4 | 100 | 95.8 | 86.4 | 24.4 | 95.1 | 96.5 | 98.7 | 102 | 46 | 1568 | 208.83 | 7328 | 567.2 | 83.35 | 3401 | Kp at 3 h ([12]; male, mouse, ip): 0.25; Kp at 3 h ([12]; male, mouse, oral, OG): 0.18; Cmax ([12]; male, mouse, ip): 972 ng/mL; Cmax ([12]; male, mouse, po, OG): 476 ng/mL; level in plasma and brain 1 h after injection (LC-MS) [13]: below the limits of detection
OCCN1CCN(Cc2ccc(-c3cnc4[nH]cc(-c5cccc(Cl)c5)c4c3)cc2)CC1 [Compound 12k, 2-(4-(4-(3-(3-Chlorophenyl)-1H-pyrrolo[2,3-b]pyridin-5-yl)benzyl)piperazin-1-yl)ethan-1-ol] | significantly decreased TNFα secretion | 90.8 | 109 | 95.4 | 40.7 | 110 | 88.3 | 95 | 3.95 | 79.9 | 84.9 | 91.1 | 72.4 | 73 | 11570 | 1162.23 | 3899 | 8429 | 658.88 | 2785 | potency in TNFα release assay relative to compound 1 (times less potent) [1]: ~5 ×; brain Cmax ([12]; IP-injected): 1162 ng/g and 2.60 μM; bioavailability ([12]; male, mouse, brain, po, read-out: Oral bioavailability (% F) by comparing brain measurements): 73%; Kp at 3 h ([12]; male, mouse, ip): 3.91; Kp at 3 h ([12]; male, mouse, oral, OG): 2.58; Cmax ([12]; male, mouse, ip): 454 ng/mL; Cmax ([12]; male, mouse, po, OG): 184 ng/mL; level in plasma and brain 1 h after injection (LC-MS) [13]: still detectable
